Measured values as given in US9364467B2 (Salix Pharmaceuticals, Ltd, priority 2012, dated 2016).
In brackets after ≈: the same amount, converted by molar mass. Where two headings read alike, the source gives them in different places.

Columns and labels:
S. haemolyticus = test: In vitro activity (MIC) against S. haemolyticus strains; details: Staphylococcus haemolyticus
[1] = system: Enterococcus spp. strains; test: In vitro activity (MIC) against Enterococcus spp. strains
S. xylosus = test: In vitro activity (MIC) against S. xylosus strains
[2] = Enterococcus, read-out: Mode (MIC), Enterococcus spp. strains

Which results are given for COC1/C=C/O[C@@]2(C)Oc3c(C)c(O)c4c(O)c(c5c(c4c3C2=O)NC2C=C(C)C=CN52)NC(=O)/C(C)=C\C=C\C(C)C(O)C(C)C(O)C(C)C(O)C1C (stereo partly shown) [25-desacetyl rifaximin]?
MIC (S. haemolyticus; strain S. haemolyticus 243): 0.5 µg/mL (≈ 0.67 µM); MIC (S. haemolyticus; strain S. haemolyticus 276): 1 µg/mL (≈ 1.34 µM); MIC (S. haemolyticus; strain S. haemolyticus 955): 1 µg/mL (≈ 1.34 µM); MIC (S. haemolyticus; strain S. haemolyticus 982): 0.5 µg/mL (≈ 0.67 µM); MIC ([1]; ATCC E. faecalis 29212): 16 µg/mL (≈ 21.5 µM); MIC ([1]; E. faecalis 181): > 16 µg/mL; MIC ([1]; E. faecalis 186): 4 µg/mL (≈ 5.36 µM); MIC ([1]; E. faecalis 187): 4 µg/mL (≈ 5.36 µM); MIC ([1]; E. faecalis 193): 4 µg/mL (≈ 5.36 µM); MIC ([1]; E. faecalis 194): > 16 µg/mL; MIC ([1]; E. faecalis 200): > 16 µg/mL; MIC ([1]; E. faecalis 204): 4 µg/mL (≈ 5.36 µM); MIC ([1]; E. faecalis 205): > 16 µg/mL; MIC ([1]; E. faecalis 210): 4 µg/mL (≈ 5.36 µM); MIC ([1]; E. faecalis 227): > 16 µg/mL; MIC ([1]; E. faecalis 228): 4 µg/mL (≈ 5.36 µM); MIC ([1]; E. faecalis 232): 4 µg/mL (≈ 5.36 µM); MIC ([1]; E. faecalis 235): > 16 µg/mL; MIC ([1]; E. faecalis 237): 4 µg/mL (≈ 5.36 µM); MIC ([1]; E. faecalis 239): > 16 µg/mL; MIC ([1]; E. faecalis 242): > 16 µg/mL; MIC ([1]; E. faecalis 243): > 16 µg/mL; MIC ([1]; E. faecalis 245): > 16 µg/mL; MIC ([1]; E. faecalis 249): 4 µg/mL (≈ 5.36 µM); MIC ([1]; E. faecalis 250): > 16 µg/mL; MIC ([1]; E. faecalis 251): > 16 µg/mL; MIC ([1]; E. faecalis 255): 4 µg/mL (≈ 5.36 µM); MIC ([1]; E. faecium 8): 4 µg/mL (≈ 5.36 µM); MIC ([1]; E. faecium 13): 4 µg/mL (≈ 5.36 µM); MIC ([1]; E. faecium 174): > 16 µg/mL; MIC ([1]; E. faecium 185): > 16 µg/mL; MIC ([1]; E. faecium 188): > 16 µg/mL; MIC ([1]; E. faecium 189): 8 µg/mL (≈ 10.7 µM); MIC ([1]; E. faecium 190): > 16 µg/mL; MIC ([1]; E. faecium 191): > 16 µg/mL; MIC ([1]; E. faecium 192): 8 µg/mL (≈ 10.7 µM); MIC ([1]; E. faecium 198): > 16 µg/mL; MIC ([1]; E. faecium 199): > 16 µg/mL; MIC ([1]; E. faecium 201): > 16 µg/mL; MIC ([1]; E. faecium 203): 8 µg/mL (≈ 10.7 µM); MIC ([1]; E. faecium 207): > 16 µg/mL; MIC ([1]; E. faecium 208): 4 µg/mL (≈ 5.36 µM); MIC ([1]; E. faecium 209): > 16 µg/mL; MIC ([1]; E. faecium 212): > 16 µg/mL; MIC ([1]; E. faecium 215): > 16 µg/mL; MIC ([1]; E. faecium 217): 4 µg/mL (≈ 5.36 µM); MIC ([1]; E. faecium 221): > 16 µg/mL; MIC ([1]; E. faecium 222): > 16 µg/mL; MIC ([1]; E. faecium 223): > 16 µg/mL; MIC ([1]; E. faecium 225): > 16 µg/mL; MIC ([1]; E. faecium 229): 8 µg/mL (≈ 10.7 µM); MIC ([1]; E. faecium 230): 4 µg/mL (≈ 5.36 µM); MIC ([1]; E. faecium 231): > 16 µg/mL; MIC ([1]; E. faecium 236): 4 µg/mL (≈ 5.36 µM); MIC ([1]; E. faecium 238): > 16 µg/mL; MIC ([1]; E. faecium 240): > 16 µg/mL; MIC ([1]; E. faecium 248): > 16 µg/mL; MIC50 ([1]; Enterococcus): > 16 µg/mL; MIC90 ([1]; Enterococcus): > 16 µg/mL; MIC [1, 2]: > 16 µg/mL; MIC (S. xylosus; Staphylococcus xylosus): 2 µg/mL (≈ 2.68 µM); MIC (S. xylosus; strain S. xylosus 346): 2 µg/mL (≈ 2.68 µM)

For CO[C@H]1/C=C/O[C@@]2(C)Oc3c(C)c(O)c4c(O)c(c5c(nc6cc(C)ccn65)c4c3C2=O)NC(=O)/C(C)=C\C=C\[C@H](C)[C@H](O)[C@@H](C)[C@@H](O)[C@@H](C)[C@H](OC(C)=O)[C@@H]1C [Rifaximin, reference compound], which MIC (S. haemolyticus; strain S. haemolyticus 243) is on record?
The MIC was 0.06 µg/mL (≈ 0.0763 µM).

What about the MIC (S. haemolyticus; strain S. haemolyticus 276) of the same compound?
Its MIC is 0.12 µg/mL (≈ 0.153 µM).

What about the MIC (S. haemolyticus; strain S. haemolyticus 955) of the same compound?
Its MIC is 0.12 µg/mL (≈ 0.153 µM).

What about the MIC (S. haemolyticus; strain S. haemolyticus 982) of the same compound?
Its MIC is 0.06 µg/mL (≈ 0.0763 µM).

What about the MIC ([1]; ATCC E. faecalis 29212) of the same compound?
The MIC was 4 µg/mL (≈ 5.09 µM).

And the MIC ([1]; E. faecalis 181)?
Its MIC is 4 µg/mL (≈ 5.09 µM).

And the MIC ([1]; E. faecalis 186)?
Its MIC is 4 µg/mL (≈ 5.09 µM).

What about the MIC ([1]; E. faecalis 187) of the same compound?
Its MIC is 4 µg/mL (≈ 5.09 µM).

And the MIC ([1]; E. faecalis 193)?
Its MIC is 4 µg/mL (≈ 5.09 µM).

What about the MIC ([1]; E. faecalis 194) of the same compound?
Its MIC is 4 µg/mL (≈ 5.09 µM).

And the MIC ([1]; E. faecalis 200)?
Its MIC is > 16 µg/mL.

What about the MIC ([1]; E. faecalis 204) of the same compound?
The MIC was 4 µg/mL (≈ 5.09 µM).

And the MIC ([1]; E. faecalis 205)?
The MIC was 4 µg/mL (≈ 5.09 µM).

What about the MIC ([1]; E. faecalis 210) of the same compound?
The MIC was 4 µg/mL (≈ 5.09 µM).

What about the MIC ([1]; E. faecalis 227) of the same compound?
The MIC was > 16 µg/mL.

What about the MIC ([1]; E. faecalis 228) of the same compound?
The MIC was 4 µg/mL (≈ 5.09 µM).

And the MIC ([1]; E. faecalis 232)?
Its MIC is 4 µg/mL (≈ 5.09 µM).

And the MIC ([1]; E. faecalis 235)?
Its MIC is 16 µg/mL (≈ 20.4 µM).

And the MIC ([1]; E. faecalis 237)?
Its MIC is 4 µg/mL (≈ 5.09 µM).

What about the MIC ([1]; E. faecalis 239) of the same compound?
Its MIC is 8 µg/mL (≈ 10.2 µM).

And the MIC ([1]; E. faecalis 242)?
Its MIC is > 16 µg/mL.

And the MIC ([1]; E. faecalis 243)?
The MIC was 16 µg/mL (≈ 20.4 µM).

What about the MIC ([1]; E. faecalis 245) of the same compound?
The MIC was > 16 µg/mL.

And the MIC ([1]; E. faecalis 249)?
The MIC was 4 µg/mL (≈ 5.09 µM).

And the MIC ([1]; E. faecalis 250)?
Its MIC is 4 µg/mL (≈ 5.09 µM).

And the MIC ([1]; E. faecalis 251)?
The MIC was 8 µg/mL (≈ 10.2 µM).

What about the MIC ([1]; E. faecalis 255) of the same compound?
Its MIC is 4 µg/mL (≈ 5.09 µM).

What about the MIC ([1]; E. faecium 8) of the same compound?
Its MIC is 4 µg/mL (≈ 5.09 µM).

What about the MIC ([1]; E. faecium 13) of the same compound?
The MIC was 4 µg/mL (≈ 5.09 µM).

And the MIC ([1]; E. faecium 174)?
The MIC was 8 µg/mL (≈ 10.2 µM).

And the MIC ([1]; E. faecium 185)?
The MIC was > 16 µg/mL.

And the MIC ([1]; E. faecium 188)?
Its MIC is 8 µg/mL (≈ 10.2 µM).

And the MIC ([1]; E. faecium 189)?
Its MIC is 4 µg/mL (≈ 5.09 µM).

What about the MIC ([1]; E. faecium 190) of the same compound?
Its MIC is 16 µg/mL (≈ 20.4 µM).

What about the MIC ([1]; E. faecium 191) of the same compound?
Its MIC is > 16 µg/mL.

What about the MIC ([1]; E. faecium 192) of the same compound?
The MIC was 2 µg/mL (≈ 2.54 µM).

And the MIC ([1]; E. faecium 198)?
The MIC was 16 µg/mL (≈ 20.4 µM).

And the MIC ([1]; E. faecium 199)?
The MIC was 8 µg/mL (≈ 10.2 µM).

And the MIC ([1]; E. faecium 201)?
The MIC was 16 µg/mL (≈ 20.4 µM).

What about the MIC ([1]; E. faecium 203) of the same compound?
The MIC was 4 µg/mL (≈ 5.09 µM).

And the MIC ([1]; E. faecium 207)?
The MIC was 4 µg/mL (≈ 5.09 µM).

What about the MIC ([1]; E. faecium 208) of the same compound?
The MIC was 2 µg/mL (≈ 2.54 µM).

And the MIC ([1]; E. faecium 209)?
Its MIC is 16 µg/mL (≈ 20.4 µM).

And the MIC ([1]; E. faecium 212)?
Its MIC is > 16 µg/mL.

What about the MIC ([1]; E. faecium 215) of the same compound?
The MIC was > 16 µg/mL.

And the MIC ([1]; E. faecium 217)?
Its MIC is 8 µg/mL (≈ 10.2 µM).

And the MIC ([1]; E. faecium 221)?
Its MIC is 8 µg/mL (≈ 10.2 µM).

And the MIC ([1]; E. faecium 222)?
Its MIC is > 16 µg/mL.

And the MIC ([1]; E. faecium 223)?
The MIC was > 16 µg/mL.

And the MIC ([1]; E. faecium 225)?
Its MIC is 4 µg/mL (≈ 5.09 µM).

And the MIC ([1]; E. faecium 229)?
Its MIC is 2 µg/mL (≈ 2.54 µM).

And the MIC ([1]; E. faecium 230)?
Its MIC is 8 µg/mL (≈ 10.2 µM).

And the MIC ([1]; E. faecium 231)?
The MIC was 16 µg/mL (≈ 20.4 µM).

What about the MIC ([1]; E. faecium 236) of the same compound?
The MIC was 2 µg/mL (≈ 2.54 µM).

What about the MIC ([1]; E. faecium 238) of the same compound?
The MIC was 16 µg/mL (≈ 20.4 µM).

And the MIC ([1]; E. faecium 240)?
Its MIC is > 16 µg/mL.

What about the MIC ([1]; E. faecium 248) of the same compound?
The MIC was > 16 µg/mL.

What about the MIC50 ([1]; Enterococcus) of the same compound?
Its MIC50 is 8 µg/mL (≈ 10.2 µM).

What about the MIC90 ([1]; Enterococcus) of the same compound?
Its MIC90 is > 16 µg/mL.

What about the MIC [1, 2] of the same compound?
Its MIC is 4 µg/mL (≈ 5.09 µM).

What about the MIC (S. xylosus; Staphylococcus xylosus) of the same compound?
The MIC was 0.5 µg/mL (≈ 0.636 µM).

What about the MIC (S. xylosus; strain S. xylosus 346) of the same compound?
Its MIC is 0.5 µg/mL (≈ 0.636 µM).
